Experimental findings from patent US11001590B2, “Pyrazolopyrimidine derivatives” (BAYER ANIMAL HEALTH GMBH, priority 2016, dated 2021) are described below.

Data set [1] relates to Litomosoides sigmodontis third-stage larvae. Description: In vitro assay 7: Litomosoides sigmodontis L3 (LTMOSI), motility. As to conditions: 72 h, reduction of motility vs negative control, 72 h incubation.
Method: In Vitro Assay 7: Litomosoides Siqmodontis L3 (LTMOSI)
10 Litomosoides sigmodontis third-stage larvae, which were freshly isolated from the pleural cavity of an infected rodent, were added to wells of a microtitre plate containing a nutrient medium and the test compound in DMSO. Compounds were tested in concentration-response assay in duplicate. Larvae exposed to DMSO and no test compounds were used as negative controls. Larvae were evaluated after 72 h of incubation with the compound. Efficacy was determined as the reduction of motility in comparison to the negative control. Based on the evaluation of a wide concentration range, concentration-response curves as well as ECso-values were calculated.
In data set [2] the test system is Dirofilaria immitis third-stage larvae. Description: In vitro assay 4: Dirofilaria immitis (DIROIM L4), motility of larvae. To be noted: 72 h.
A short description of data set [3]: log P by HPLC on reversed phase columns (Method L0; [a] acidic, [b] neutral range).
Method: Calibration was done with straight-chain alkan-2-ones (with 3 to 16 carbon atoms) with known log P values (measurement of log P values using retention times with linear interpolation between successive alkanones). Lambda-max-values were determined using UV-spectra from 200 nm to 400 nm and the peak values of the chromatographic signals.
The next data set deals with C. elegans Slo-1a (Caenorhabditis elegans, UniProt Q95V25). Description: In vitro assay 1: C. elegans Slo-1a, action at a recombinant C. elegans CHO cell line (membrane potential measurement).
Chain of C. elegans Slo-1a (Q95V25 whole entry): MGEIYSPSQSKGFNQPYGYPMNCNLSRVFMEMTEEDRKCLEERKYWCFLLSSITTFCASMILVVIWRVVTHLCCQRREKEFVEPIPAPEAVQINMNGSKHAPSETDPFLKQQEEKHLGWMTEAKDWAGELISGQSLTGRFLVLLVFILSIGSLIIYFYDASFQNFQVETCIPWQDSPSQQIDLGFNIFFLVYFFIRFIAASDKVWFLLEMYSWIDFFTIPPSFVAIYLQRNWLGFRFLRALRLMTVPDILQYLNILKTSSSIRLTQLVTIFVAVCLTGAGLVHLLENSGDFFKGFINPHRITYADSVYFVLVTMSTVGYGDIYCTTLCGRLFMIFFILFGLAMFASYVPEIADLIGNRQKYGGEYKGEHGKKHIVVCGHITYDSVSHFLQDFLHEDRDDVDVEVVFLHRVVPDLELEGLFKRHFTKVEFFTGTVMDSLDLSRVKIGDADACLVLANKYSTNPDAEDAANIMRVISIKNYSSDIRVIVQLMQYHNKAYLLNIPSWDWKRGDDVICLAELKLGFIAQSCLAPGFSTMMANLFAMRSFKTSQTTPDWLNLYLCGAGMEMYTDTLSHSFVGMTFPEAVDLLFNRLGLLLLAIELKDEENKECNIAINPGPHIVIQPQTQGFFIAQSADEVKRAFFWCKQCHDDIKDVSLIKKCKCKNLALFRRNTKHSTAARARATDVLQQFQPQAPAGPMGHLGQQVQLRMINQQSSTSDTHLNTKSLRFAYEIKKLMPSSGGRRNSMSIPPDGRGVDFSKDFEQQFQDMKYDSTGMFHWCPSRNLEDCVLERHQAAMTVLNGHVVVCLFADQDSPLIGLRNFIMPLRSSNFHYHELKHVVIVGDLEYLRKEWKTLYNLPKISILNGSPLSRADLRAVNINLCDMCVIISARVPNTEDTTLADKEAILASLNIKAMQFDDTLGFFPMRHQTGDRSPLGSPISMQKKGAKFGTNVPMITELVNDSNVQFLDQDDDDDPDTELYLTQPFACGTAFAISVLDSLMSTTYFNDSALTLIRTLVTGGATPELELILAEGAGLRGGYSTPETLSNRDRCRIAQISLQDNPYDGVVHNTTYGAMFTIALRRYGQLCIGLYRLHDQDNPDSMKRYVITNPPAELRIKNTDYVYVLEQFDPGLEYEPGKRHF
Data set [4] relates to Dirofilaria immitis microfilariae. Description: In vitro assay 3: Dirofilaria immitis microfilariae (DIROIM L1), motility. To be noted: 72 h, reduction of motility vs negative control, 72 h incubation.

With `Cc1nn2c(C3CC3)c(C(=O)N[C@H]3CCc4ccccc43)cnc2c1-c1cc(F)ccc1F` [Example 422], the EC50 was below 0.1 µg/mL in data set [1], below 0.1 µg/mL in data set [2], 3.98 nM on C. elegans Slo-1a and below 0.1 µg/mL in data set [4]. The chromatographic logP in data set [3] was determined as 3.84.
For `Cc1nn2c(C(C)C)c(C(=O)N[C@H]3CCOc4ccccc43)cnc2c1-c1ccc(F)c(F)c1` [Example 100], the EC50 in data set [1] was below 0.1 µg/mL; in data set [2], below 0.1 µg/mL; on C. elegans Slo-1a it was 7.94 nM; in data set [4] it was below 0.1 µg/mL. In addition, the chromatographic logP in data set [3] is 4.56.
Turning to `CCC(C)c1c(C(=O)N[C@H]2CCOc3ccccc32)cnc2c(-c3c(F)cccc3Cl)c(C)nn12` (some centres unmarked) [Example 226], the 50% effective concentration (EC50) was below 0.1 µg/mL in data set [1], below 0.1 µg/mL in data set [2], 20 nM on C. elegans Slo-1a and below 0.1 µg/mL in data set [4]. For the same molecule, in data set [3], the chromatographic logP was 4.72.
As for `Cc1nn2c(C(C)C)c(C(=O)N[C@H]3CCc4ccccc43)cnc2c1-c1c(F)cccc1Cl` [Example 132], the EC50 in data set [1] was below 0.1 µg/mL; in data set [2] it was below 0.1 µg/mL; at C. elegans Slo-1a it was 6.31 nM; in data set [4] it was below 0.1 µg/mL. This molecule also registered a chromatographic logP in data set [3] of 4.71.
As to `Cc1nn2c(C(C)C)c(C(=O)N[C@H]3CCOc4ccccc43)cnc2c1-c1ccccc1F` [Example 92], the EC50 was below 0.1 µg/mL in data set [1], below 0.1 µg/mL in data set [2], 6.31 nM at C. elegans Slo-1a and below 0.1 µg/mL in data set [4]. The same molecule showed a chromatographic logP in data set [3] of 4.18.
Consider `Cc1nn2c(C(C)C)c(C(=O)N[C@H]3CCOc4ccccc43)cnc2c1-c1cccc(Cl)c1` [Example 117], for which the EC50 in data set [1] is below 0.1 µg/mL; in data set [2], below 0.1 µg/mL; at C. elegans Slo-1a it was 5.01 nM; in data set [4], below 0.1 µg/mL. In addition, the chromatographic logP in data set [3] came out at 4.87.
In the case of `Cc1nn2c(C(C)C)c(C(=O)N[C@H]3CCCc4ccccc43)cnc2c1-c1c(F)cccc1Cl` [Example 131], the concentration for a half-maximal effect (EC50) was below 0.1 µg/mL in data set [1], below 0.1 µg/mL in data set [2], 7.94 nM on C. elegans Slo-1a and below 0.1 µg/mL in data set [4]. The molecule also came in with a chromatographic logP in data set [3] of 5.02.
Take `Cc1nn2c(C3CC3)c(C(=O)N[C@H]3CCc4ccccc43)cnc2c1-c1cccc(Cl)c1` [Example 352]: the EC50 was below 0.1 µg/mL in data set [1], below 0.1 µg/mL in data set [2], 6.31 nM at C. elegans Slo-1a and below 0.1 µg/mL in data set [4]. For the same molecule, in data set [3], the chromatographic logP turned out to be 4.38.
For the molecule `Cc1nn2c(C3CC3)c(C(=O)N[C@H]3CCc4ccccc43)cnc2c1-c1c(F)cc(F)cc1F` [Example 438], the EC50 in data set [1] is below 0.1 µg/mL; in data set [2], below 0.1 µg/mL; on C. elegans Slo-1a it was 1.26 nM; in data set [4] it was below 0.1 µg/mL. This molecule returned a chromatographic logP in data set [3] of 3.87.
Regarding `Cc1nn2c(C(C)C)c(C(=O)N[C@H]3CCc4ccccc43)cnc2c1-c1ccc(F)cc1` [Example 302], the half-maximal effective concentration (EC50) in data set [1] is below 0.1 µg/mL; in data set [2] it was below 0.1 µg/mL; on C. elegans Slo-1a it was 12.6 nM; in data set [4], below 0.1 µg/mL. This molecule also gave a chromatographic logP in data set [3] of 4.63.
Regarding `Cc1nn2c(C3CC3)c(C(=O)N[C@H]3CCOc4ccccc43)cnc2c1-c1ccccc1Cl` [Example 452], the EC50 was below 0.1 µg/mL in data set [1], below 0.1 µg/mL in data set [2], 2.51 nM on C. elegans Slo-1a and below 0.1 µg/mL in data set [4]. Moreover, the chromatographic logP in data set [3] worked out at 3.64.
On to `Cc1nn2c(C3CC3)c(C(=O)N[C@H]3CCc4ccccc43)cnc2c1-c1cccc(F)c1` [Example 353], for which the EC50 was below 0.1 µg/mL in data set [1], below 1 µg/mL in data set [2], 7.94 nM on C. elegans Slo-1a and below 0.1 µg/mL in data set [4]. The chromatographic logP in data set [3] was determined as 3.95.
In the case of `Cc1nn2c(C3CC3)c(C(=O)N[C@H]3CCc4ccccc43)cnc2c1-c1cccc(F)c1F` [Example 424], the EC50 in data set [1] is below 0.1 µg/mL; in data set [2] it was below 0.1 µg/mL; at C. elegans Slo-1a it was 2.51 nM; in data set [4], below 0.1 µg/mL. The molecule also displayed a chromatographic logP in data set [3] of 3.84.
For `Cc1nn2c(C(C)C)c(C(=O)N[C@H]3CCc4ccccc43)cnc2c1-c1cccc2c1OC(F)(F)O2` [Example 147], the EC50 in data set [1] is below 0.1 µg/mL; in data set [2] it was below 0.1 µg/mL; at C. elegans Slo-1a, 50.1 nM; in data set [4], below 0.1 µg/mL. Moreover, in data set [3], the chromatographic logP is 5.17.
As to `Cc1nn2c(C(C)C)c(C(=O)N[C@H]3CCc4ccccc43)cnc2c1-c1cccc(Cl)c1` [Example 287], the EC50 is below 0.1 µg/mL in data set [1], 15.8 nM at C. elegans Slo-1a and below 1 µg/mL in data set [4]. Further, the chromatographic logP in data set [3] is 5.19.
In the case of `Cc1nn2c(C(C)C)c(C(=O)N[C@H]3CCOc4ccccc43)cnc2c1-c1cc(F)ccc1F` [Example 121], the EC50 is below 0.1 µg/mL in data set [1], below 0.1 µg/mL in data set [2], 6.31 nM at C. elegans Slo-1a and below 0.1 µg/mL in data set [4]. Also, the chromatographic logP in data set [3] was 4.41.
As to `Cc1nn2c(C(C)C)c(C(=O)N[C@H]3CCOc4ccccc43)cnc2c1-c1cccc(C(F)F)c1` [Example 153], the EC50 in data set [1] is below 0.1 µg/mL; in data set [2], below 0.1 µg/mL; at C. elegans Slo-1a, 126 nM; in data set [4] it was below 0.1 µg/mL. In data set [3], the chromatographic logP was 4.41.
Regarding `Cc1nn2c(C3CC3)c(C(=O)N[C@H]3CCc4ccccc43)cnc2c1-c1c(F)ccc(F)c1F` [Example 437], the EC50 in data set [1] is below 0.1 µg/mL; in data set [2], below 0.1 µg/mL; on C. elegans Slo-1a it was 1.58 nM; in data set [4], below 0.1 µg/mL. The molecule also registered a chromatographic logP in data set [3] of 3.83.
Take `COc1cc(F)cc(-c2c(C)nn3c(C(C)C)c(C(=O)N[C@H]4CCc5ccccc54)cnc23)c1` [Example 325]: the EC50 in data set [1] was below 0.1 µg/mL; in data set [2] it was below 0.1 µg/mL; on C. elegans Slo-1a, 20 nM; in data set [4] it was below 0.1 µg/mL. Besides, in data set [3], the chromatographic logP turned out to be 4.8.
For `Cc1nn2c(C3CC3)c(C(=O)N[C@H]3CCOc4ccccc43)cnc2c1-c1cc(F)ccc1F` [Example 448], the EC50 was below 0.1 µg/mL in data set [2], 3.16 nM at C. elegans Slo-1a and below 0.1 µg/mL in data set [4]. For the same molecule, the chromatographic logP in data set [3] is 3.61.
Consider `Cc1nn2c(C3CC3)c(C(=O)N[C@H]3CCOc4ccccc43)cnc2c1-c1ccccc1F` [Example 450], for which the EC50 in data set [2] is below 0.1 µg/mL; on C. elegans Slo-1a it was 3.16 nM; in data set [4], below 0.1 µg/mL. In addition, in data set [3], the chromatographic logP came out at 3.45.
As for `Cc1nn2c(C(C)C)c(C(=O)N[C@H]3CCCc4ccccc43)cnc2c1-c1cc(Cl)ccc1Cl` [Example 172], the concentration for a half-maximal effect (EC50) in data set [2] was below 0.1 µg/mL; on C. elegans Slo-1a, 10 nM; in data set [4], below 0.1 µg/mL. This molecule yielded a chromatographic logP in data set [3] of 5.64.
On to `COc1cccc(-c2c(C)nn3c(C(C)C)c(C(=O)N[C@H]4CCc5ccccc54)cnc23)c1` [Example 289], for which the half-maximal effective concentration (EC50) in data set [1] was below 0.1 µg/mL; at C. elegans Slo-1a it was 15.8 nM; in data set [4], below 1 µg/mL. In data set [3], this molecule yielded a chromatographic logP of 4.51.
As for `Cc1nn2c(C(C)C)c(C(=O)N[C@H]3CCc4ccccc43)cnc2c1-c1cccc(C(F)(F)F)c1` [Example 4], the EC50 in data set [2] is below 1 µg/mL; on C. elegans Slo-1a, 31.6 nM; in data set [4], below 1 µg/mL. In data set [3], this molecule yielded a chromatographic logP of 5.3.
Regarding `Cc1nn2c(C3CC3)c(C(=O)N[C@H]3CCOc4ccccc43)cnc2c1-c1ccc(F)cc1` [Example 463], the EC50 in data set [2] is below 0.1 µg/mL; at C. elegans Slo-1a, 7.94 nM; in data set [4], below 0.1 µg/mL. Besides, in data set [3], the chromatographic logP amounted to 3.62.
With `Cc1nn2c(C(C)C)c(C(=O)N[C@H]3CCc4ccccc43)cnc2c1-c1cccc(F)c1` [Example 290, (S)—N-(2,3-Dihydro-1H-inden-1-yl)-3-(3-fluorophenyl)-7-isopropyl-2-methylpyrazolo[1,5-a]pyrimidine-6-carboxamide], the EC50 in data set [1] is below 1 µg/mL; at C. elegans Slo-1a it was 15.8 nM; in data set [4] it was below 1 µg/mL. In data set [3], this molecule gave a chromatographic logP of 4.73.
On to `Cc1nn2c(C3CC3)c(C(=O)N[C@H]3CCOc4ccccc43)cnc2c1-c1c(F)cccc1F` [Example 445], for which the EC50 in data set [2] is below 0.1 µg/mL; on C. elegans Slo-1a, 2 nM; in data set [4], below 0.1 µg/mL. For the same molecule, the chromatographic logP in data set [3] is 3.43.
Regarding `Cc1nn2c(C(C)C)c(C(=O)N[C@H]3CCc4ccccc43)cnc2c1-c1cccc(F)c1Cl` [Example 165], the figures for the EC50 (in data set [2]; at C. elegans Slo-1a; in data set [4]) were below 0.1 µg/mL, 2 nM and below 0.1 µg/mL, respectively. Also, the chromatographic logP in data set [3] was found to be 4.74.
Consider `Cc1nn2c(C(C)C)c(C(=O)N[C@H]3CCc4ccccc43)cnc2c1-c1cccc(N2CC(F)(F)C2)c1` [Example 364], for which the EC50 in data set [2] was below 1 µg/mL; at C. elegans Slo-1a it was 10 nM; in data set [4], below 1 µg/mL. The molecule further showed a chromatographic logP in data set [3] of 4.89.
For `Cc1nn2c(N3CCOCC3)c(C(=O)N[C@H]3CCOc4ccccc43)cnc2c1-c1cccc(Cl)c1F` [Example 524], the figures for the EC50 (in data set [2]; on C. elegans Slo-1a; in data set [4]) were below 0.1 µg/mL, 1.26 nM and below 0.1 µg/mL, respectively. For the same molecule, the chromatographic logP in data set [3] was found to be 4.69.
In the case of `COCc1cccc(-c2c(C)nn3c(C4CC4)c(C(=O)N[C@H]4CCc5ccccc54)cnc23)c1` [Example 350], the concentration for a half-maximal effect (EC50) is below 1 µg/mL in data set [2], 10 nM at C. elegans Slo-1a and below 0.1 µg/mL in data set [4]. In data set [3], this molecule showed a chromatographic logP of 3.65.
The matching figures for `Cc1nn2c(C3CC3)c(C(=O)N[C@H]3CCc4ccccc43)cnc2c1-c1ccc(F)c(F)c1` [Example 358]: below 1 µg/mL, 12.6 nM, below 1 µg/mL and 4.1.

The EC50 is the concentration at which the effect is half-maximal. For orientation: chromatographic logP means lipophilicity estimated from chromatographic retention. A higher chromatographic logP goes with a more lipophilic compound.
